Laboratory results from patent publication US20230002375A1, “HYDROPYRAZINO[1,2-B]ISOQUINOLINE COMPOUNDS FOR THE TREATMENT OF AUTOIMMUNE DISEASE” (Hoffmann-La Roche Inc., priority 2019, published 2023).

Assays:
human TLR8 = biological target: T1, human TLR8 (Homo sapiens, UniProt Q9NR97); assay: HEK293-Blue-hTLR-8 cells assay (SEAP reporter, R848 stimulation); type: cell-based; settings: HEK293-Blue-hTLR8 cells, R848, 20 hrs incubation; read-out: HEK/hTLR8 IC50
T1 sequence (Q9NR97 27-1041): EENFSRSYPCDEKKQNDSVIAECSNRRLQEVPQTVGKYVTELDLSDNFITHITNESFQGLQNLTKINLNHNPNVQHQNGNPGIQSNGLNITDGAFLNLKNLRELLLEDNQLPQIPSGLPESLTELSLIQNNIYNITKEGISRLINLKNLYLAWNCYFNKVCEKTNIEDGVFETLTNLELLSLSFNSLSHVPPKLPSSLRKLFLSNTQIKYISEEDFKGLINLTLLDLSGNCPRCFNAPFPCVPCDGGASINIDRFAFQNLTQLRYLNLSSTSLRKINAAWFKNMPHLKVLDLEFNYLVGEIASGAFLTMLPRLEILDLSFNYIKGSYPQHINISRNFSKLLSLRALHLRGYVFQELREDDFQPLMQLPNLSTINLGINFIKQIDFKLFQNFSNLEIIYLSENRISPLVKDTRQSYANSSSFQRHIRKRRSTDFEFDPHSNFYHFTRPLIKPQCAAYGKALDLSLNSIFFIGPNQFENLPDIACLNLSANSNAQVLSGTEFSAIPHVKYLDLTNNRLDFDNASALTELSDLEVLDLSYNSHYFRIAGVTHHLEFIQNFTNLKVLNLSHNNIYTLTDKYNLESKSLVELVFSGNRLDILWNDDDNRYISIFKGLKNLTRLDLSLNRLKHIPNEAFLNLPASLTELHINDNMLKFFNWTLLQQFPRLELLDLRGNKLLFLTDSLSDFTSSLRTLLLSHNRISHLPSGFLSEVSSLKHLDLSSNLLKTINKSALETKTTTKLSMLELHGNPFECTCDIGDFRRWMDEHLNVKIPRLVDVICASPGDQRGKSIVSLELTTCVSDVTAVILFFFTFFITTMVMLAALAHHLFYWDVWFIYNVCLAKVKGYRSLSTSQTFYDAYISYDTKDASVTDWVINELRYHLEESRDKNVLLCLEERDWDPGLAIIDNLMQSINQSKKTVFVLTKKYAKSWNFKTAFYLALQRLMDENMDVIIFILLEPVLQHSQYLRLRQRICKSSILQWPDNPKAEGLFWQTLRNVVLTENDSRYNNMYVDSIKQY
Description: The following tests were carried out in order to determine the activity of the compounds of formula (I), (Ia) or (Ib) in HEK293-Blue-hTLR-7/8/9 cells assay.
HEK293-Blue-hTLR-8 Cells Assay:
A stable HEK293-Blue-hTLR-8 cell line was purchased from InvivoGen (Cat.#: hkb-htlr8, San Diego, Calif., USA). These cells were originally designed for studying the stimulation of human TLR8 by monitoring the activation of NF-κB. A SEAP (secreted embryonic alkaline phosphatase) reporter gene was placed under the control of the IFN-β minimal promoter fused to five NF-κB and AP-1-binding sites. The SEAP was induced by activating NF-κB and AP-1 via stimulating HEK-Blue hTLR8 cells with TLR8 ligands. Therefore the reporter expression was declined by TLR8 antagonist under the stimulation of a ligand, such as R848, for incubation of 20 hrs. The cell culture supernatant SEAP reporter activity was determined using QUANTI-Blue™ kit (Cat.#: rep-qb1, Invivogen, San Diego, Ca, USA) at a wavelength of 640 nm, a detection medium that turns purple or blue in the presence of alkaline phosphatase.
HEK293-Blue-hTLR8 cells were incubated at a density of 250,000-450,000 cells/mL in a volume of 170 μL in a 96-well plate in Dulbecco's Modified Eagle's medium (DMEM) containing 4.5 g/L glucose, 50 U/mL penicillin, […], […], 2 mM L-glutamine, 10% (v/v) heat-inactivated fetal bovine serum with addition of 20 μL test compound in a serial dilution in the presence of final DMSO at 1% and 10 μL of 60 uM R848 in above DMEM, perform incubation under 37° C. in a CO2 incubator for 20 hrs. Then 20 μL of the supernatant from each well was incubated with 180 μL Quanti-blue substrate solution at 37° C. for 2 hrs and the absorbance was read at 620˜655 nm using a spectrophotometer. The signaling pathway that TLR8 activation leads to downstream NF-κB activation has been widely accepted, and therefore similar reporter assay was modified for evaluating TLR8 antagonist.

[1] = Human microsomal stability assay; type: in vitro ADME; settings: human liver microsomes, 1 μM test compound, 0.5 mg/mL protein, 37° C.; low <7.0, medium 7.0-16.2, high 16.2-23.2 mL/min/kg
Description: Human Microsomal Stability Assay
Human liver microsomes (Cat.NO.: 452117, Corning, USA) were preincubated with test compound for 10 minutes at 37° C. in 100 mM potassium phosphate buffer, pH 7.4. The reactions were initiated by adding NADPH regenerating system. The final incubation mixtures contained 1 μM test compound, 0.5 mg/mL liver microsomal protein, 1 mM MgCl2, 1 mM NADP, 1 unit/mL isocitric dehydrogenase and 6 mM isocitric acid in 100 mM potassium phosphate buffer, pH 7.4. After incubation times of 0, 3, 6, 9, 15 and 30 minutes at 37° C., 300 μL of cold ACN (including internal standard) was added to 100 μL incubation mixture to terminate the reaction. Following precipitation and centrifugation, 100 uL supernatant will be taken out and added 300 uL water. The amount of compound remaining in the samples was determined by LC-MS/MS. Controls of no NADPH regenerating system at zero and 30 minutes were also prepared and analyzed. The results were categorized as: low (<7.0 mL/min/kg), medium (7.0-16.2 mL/min/kg) and high (16.2-23.2 mL/min/kg).

Structure (SMILES) | IC50 (human TLR8) | CL(h) [1]
C[C@@H]1CN(c2ccc(C#N)c3ncccc23)C[C@@H]2Cc3cc(OC[C@@H]4CCN4)ccc3CN21 [Example 12, 5-[(4R,11aS)-9-[[(2S)-azetidin-2-yl]methoxy]-4-methyl-1,3,4,6,11,11a-hexahydropyrazino[1,2-b]isoquinolin-2-yl]quinoline-8-carbonitrile] | 22.9 nM | 
C[C@@H]1CN(c2ccc(C#N)c3ncccc23)C[C@@H]2Cc3cc(N4CC(N)CC4=O)ccc3CN21 (stereo partly drawn) [Example 16, 5-[(4R,11aS)-9-(4-amino-2-oxo-pyrrolidin-1-yl)-4-methyl-1,3,4,6,11,11a-hexahydropyrazino[1,2-b]isoquinolin-2-yl]quinoline-8-carbonitrile] | 5.3 nM | 6.8 mL/min/kg
CO[C@H]1CNC[C@H]1Nc1ccc2c(c1)C[C@H]1CN(c3ccc(C#N)c4ncccc34)C[C@@H](C)N1C2 [Example 7, 5-[(4R,11aS)-9-[[(3R,4S)-4-methoxypyrrolidin-3-yl]amino]-4-methyl-1,3,4,6,11,11a-hexahydropyrazino[1,2-b]isoquinolin-2-yl]quinoline-8-carbonitrile] | 13.5 nM | 
C[C@@H]1CN(c2ccc(C#N)c3ncccc23)C[C@@H]2Cc3ccc(NCCN4CC[C@H](O)C4)cc3CN21 [Example 2, 5-[(4R,11aS)-8-[2-[(3S)-3-hydroxypyrrolidin-1-yl]ethylamino]-4-methyl-1,3,4,6,11,11a-hexahydropyrazino[1,2-b]isoquinolin-2-yl]quinoline-8-carbonitrile] | 4.2 nM | 
C[C@@H]1CN(c2ccc(C#N)c3ncccc23)C[C@@H]2Cc3ccc(N4CCOCC(N)C4)cc3CN21 (stereo partly drawn) [Example 1, 5-[(4R,11aS)-8-(6-amino-1,4-oxazepan-4-yl)-4-methyl-1,3,4,6,11,11a-hexahydropyrazino[1,2-b]isoquinolin-2-yl]quinoline-8-carbonitrile] | 14.5 nM | 
C[C@@H]1CN(c2ccc(C#N)c3ncccc23)C[C@@H]2Cc3cc(N4C[C@@H]5C[C@H]4CN5C(=O)C(C)(C)N)ccc3CN21 [Example 15, 5-[(4R,11aS)-9-[(1S,4S)-5-(2-amino-2-methyl-propanoyl)-2,5-diazabicyclo[2.2.1]heptan-2-yl]-4-methyl-1,3,4,6,11,11a-hexahydropyrazino[1,2-b]isoquinolin-2-yl]quinoline-8-carbonitrile] | 4.7 nM | 
C[C@@H]1CN(c2ccc(C#N)c3ncccc23)C[C@@H]2Cc3cc(N4CC5CCNCC5C4=O)ccc3CN21 (stereo partly drawn) [Example 18, 5-[(4R,11aS)-4-methyl-9-(3-oxo-3a,4,5,6,7,7a-hexahydro-1H-pyrrolo[3,4-c]pyridin-2-yl)-1,3,4,6,11,11a-hexahydropyrazino[1,2-b]isoquinolin-2-yl]quinoline-8-carbonitrile] | 14.5 nM | 
C[C@@H]1CN(c2ccc(C#N)c3ncccc23)C[C@@H]2Cc3cc(N4C[C@@H]5CNCCN5C4=O)ccc3CN21 (single isomer, unassigned) [Example 17A] | 8 nM | 
C[C@@H]1CN(c2ccc(C#N)c3ncccc23)C[C@@H]2Cc3ccc(OCCN(C)C)cc3CN21 [Example 5, 5-[(4R,11aS)-8-[2-(dimethylamino)ethoxy]-4-methyl-1,3,4,6,11,11a-hexahydropyrazino[1,2-b]isoquinolin-2-yl]quinoline-8-carbonitrile] | 9.2 nM | 
C[C@@H]1CN(c2ccc(C#N)c3ncccc23)C[C@@H]2Cc3cc(N4C[C@H]5CNCCN5C4=O)ccc3CN21 (single isomer, unassigned) [Example 17B] | 2.4 nM | 
C[C@@H]1CN(c2ccc(C#N)c3ncccc23)C[C@@H]2Cc3cc(N4C[C@@H](F)[C@@H](N)C4)ccc3CN21 [Example 8, 5-[(4R,11aS)-9-[(3S,4R)-3-amino-4-fluoro-pyrrolidin-1-yl]-4-methyl-1,3,4,6,11,11a-hexahydropyrazino[1,2-b]isoquinolin-2-yl]quinoline-8-carbonitrile] | 21.5 nM | 9.6 mL/min/kg
C[C@@H]1CN(c2ccc(C#N)c3ncccc23)C[C@@H]2Cc3cc(N4CCN(C(=O)[C@]5(C)CCCN5)CC4)ccc3CN21 [Example 14, 5-[(4R,11aS)-4-methyl-9-[4-[(2S)-2-methylpyrrolidine-2-carbonyl]piperazin-1-yl]-1,3,4,6,11,11a-hexahydropyrazino[1,2-b]isoquinolin-2-yl]quinoline-8-carbonitrile] | 1.4 nM | 8.7 mL/min/kg
C[C@@H]1CN(c2ccc(C#N)c3ncccc23)C[C@@H]2Cc3cc(N4CC5CNCCC5C4=O)ccc3CN21 (stereo partly drawn) [Example 19, 5-[(4R,11aS)-4-methyl-9-(1-oxo-3a,4,5,6,7,7a-hexahydro-3H-pyrrolo[3,4-c]pyridin-2-yl)-1,3,4,6,11,11a-hexahydropyrazino[1,2-b]isoquinolin-2-yl]quinoline-8-carbonitrile] | 4.2 nM | 
CO[C@H]1CN(c2ccc3c(c2)C[C@H]2CN(c4ccc(C#N)c5ncccc45)C[C@@H](C)N2C3)C[C@H]1N [Example 9, 5-[(4R,11aS)-9-[(3R,4S)-3-amino-4-methoxy-pyrrolidin-1-yl]-4-methyl-1,3,4,6,11,11a-hexahydropyrazino[1,2-b]isoquinolin-2-yl]quinoline-8-carbonitrile] | 2.3 nM | 8.8 mL/min/kg
C[C@@H]1CN(c2ccc(C#N)c3ncccc23)C[C@@H]2Cc3cc(OCCN(C)C)ccc3CN21 [Example 11, 5-[(4R,11aS)-9-[2-(dimethylamino)ethoxy]-4-methyl-1,3,4,6,11,11a-hexahydropyrazino[1,2-b]isoquinolin-2-yl]quinoline-8-carbonitrile] | 11.1 nM | 
C[C@@H]1CN(c2ccc(C#N)c3ncccc23)C[C@@H]2Cc3cc(N[C@@H]4CNC[C@@H]4F)ccc3CN21 [Example 6, 5-[(4R,11aS)-4-methyl-9-[[(3R,4S)-4-fluoropyrrolidin-3-yl]amino]-1,3,4,6,11,11a-hexahydropyrazino[1,2-b]isoquinolin-2-yl]quinoline-8-carbonitrile] | 26.1 nM | 6.8 mL/min/kg
C[C@@H]1CN(c2ccc(C#N)c3ncccc23)C[C@@H]2Cc3cc(N4CCN(C(=O)C(C)(C)N)CC4)ccc3CN21 [Example 13, 5-[(4R,11aS)-9-[4-(2-amino-2-methyl-propanoyl)piperazin-1-yl]-4-methyl-1,3,4,6,11,11a-hexahydropyrazino[1,2-b]isoquinolin-2-yl]quinoline-8-carbonitrile] | 37.5 nM | 7.6 mL/min/kg
